Assay [1] has as its system Fusobacterium necrophorum subsp. necrophorum strain 8L1. As to the kind of experiment: Efficacy study in mouse model of liver abscesses. The assay is classed as in vivo, BALB/c mice. As to conditions: 60 μg CHX in 1.3×10^6 neutrophils. As to the method:
In an efficacy study that followed, Fusobacterium necrophorum subsp. necrophorum strain 8L1 was grown overnight from a single colony in PRAS-BHI. 0.3 ml of the starter culture was added to 10 ml of fresh PRAS-BHI broth and grown to an O.D.600 of 0.7. 1 ml of this culture was diluted 1:40 to achieve a final concentration of approximately 4·10^6 CFU/ml. 400 μl of the diluted bacteria was injected intraperitonially into 10 week old BALB/c mice.
Ten-week old BALB/c mice were randomly assigned into 6 groups with 9 mice per group. On day zero, all mice were infected intraperitonially with an infectious dose (approximately 1×10^7 CFU) of F. necrophorum. On day 3, mice were injected (via tail vein) with 100 μl PBS (control), unmodified neutrophils, neutrophils carrying microparticles (an average of 20 cells of M. luteus loaded with chlorhexidine), or neutrophils containing unmodified, heat deactivated M. luteus. The animals were monitored for clinical signs for 5 days after treatment and were euthanized if any clinical signs developed. The mice were euthanized 5 days post treatment and all mice were examined post mortem for abscesses in the livers. Livers of the mice were weighed and homogenized in a tissue homogenizer for 1 min in modified lactate (ML) broth. […]

The subject of assay [2] is 4T1 mouse mammary carcinoma cells. As to the kind of experiment: In situ photodynamic therapy (ALA plus luminol) of mouse mammary tumors. The assay is classed as in vivo. The settings on record: ALA 100 mg/kg IP prior to luminol 250 mg/kg IP; treatment repeated; four days after PDT.
Method: 1×10^5 4T1 mouse mammary carcinoma cells (ATCC) were transplanted into a mammary fat pad of a mouse. Four, six, eight and ten days after transplant, luminol (Sigma-Aldrich) was administered intrapertioneally (IP)(250 mg/kg) and the mouse was imaged on an IVIS Lumina imaging apparatus. For in situ photodynamic therapy, the sensitizer alpha aminolevulinic acid (ALA), which is a precursor to protoporphyrin IX (a clinically used photosensitizer), was administered IP (100 mg/kg,) prior to luminol administration. […] Adjunct treatments designed to enhance the PDT effect included the administration of the TGF-β inhibitor LY34947 (1 mg/kg, IP), streptokinase (800 units/mouse, IV), or a combination of LY34947 and streptokinase.

“Also recorded” adds a separate entry of the source.

Consider `[H]/N=C(\N/C(=N/[H])NCCCCCCNC(=N)NC(=N)Nc1ccc(Cl)cc1)Nc1ccc(Cl)cc1` [CHX, chlorhexidine gluconate], for which the “effect against the hepatic disease caused by F. necrophorum” value in assay [1] is “effective”.

As to `NCC(=O)CCC(=O)O` [ALA, 5-aminolevulinic acid], the “tumor response determined by imaging with luciferin” value in assay [2] is given as “can attenuate tumors; also recorded: dramatic regression of the tumors”.

(Values after patent US20150224211A1, “LEUKOCYTES AS DELIVERY CELLS FOR IMAGING AND DISEASE THERAPY” (priority 2012, published 2015).)
